# Assay results as given in patent publication US10711041B2, “Lyophilisate containing a cyclic peptide of formula X1-[sequence]-X2” (priority 2013, dated 2020).
# Key:
# [1] = Stability investigation of the lyophilisate (visual inspection, reverse HPLC); type: physicochemical
# Description: For that the lyophilisate was stored up to 24 months at 2 to 8° C. and up to 6 months at 25° C. at 60% relative humidity. Stability was investigated at different time points during that period. In particular the appearance, contents, as well as purity of the cyclic peptides were investigated. For that laboratory-common analytical processes were used, such as e.g. visual inspection and reverse HPLC.
# [2] = biological target: T1, amilorid-sensitive Sodium Ion Channel (ENaC) (Homo sapiens, UniProt P37088); assay: Patch Clamp whole cell sodium current in deglycosylated (PNGase F) and untreated A549 cells; type: cell-based; settings: pre-treatment with PNGase F, peptide 240 nM, Eh = −100 mV
# T1 construct: Macroscopic Sodium Ion Currents were derived from human lung epithelian cells A549; endogenous in cells; host or cells: A549 human lung epithelial cells
# T1 sequence (P37088 1-669): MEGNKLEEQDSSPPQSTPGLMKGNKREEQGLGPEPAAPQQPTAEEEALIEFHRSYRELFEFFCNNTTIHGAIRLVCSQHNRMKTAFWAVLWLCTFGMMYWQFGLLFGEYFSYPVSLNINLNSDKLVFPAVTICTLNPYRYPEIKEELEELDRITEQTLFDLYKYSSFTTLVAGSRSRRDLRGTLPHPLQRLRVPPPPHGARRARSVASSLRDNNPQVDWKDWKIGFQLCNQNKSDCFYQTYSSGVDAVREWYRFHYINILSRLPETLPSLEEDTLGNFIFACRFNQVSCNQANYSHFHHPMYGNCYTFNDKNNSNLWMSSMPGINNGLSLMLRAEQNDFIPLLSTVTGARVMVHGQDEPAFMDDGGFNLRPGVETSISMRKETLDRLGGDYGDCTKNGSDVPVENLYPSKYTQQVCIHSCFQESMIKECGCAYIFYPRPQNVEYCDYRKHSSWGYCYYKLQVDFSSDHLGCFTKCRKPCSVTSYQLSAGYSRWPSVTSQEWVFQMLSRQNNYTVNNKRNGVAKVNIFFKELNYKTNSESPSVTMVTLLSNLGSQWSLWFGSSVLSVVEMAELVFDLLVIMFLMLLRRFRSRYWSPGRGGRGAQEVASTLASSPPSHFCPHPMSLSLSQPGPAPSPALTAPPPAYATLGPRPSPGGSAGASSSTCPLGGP
# T1 sequence (P51168 1-640 partner): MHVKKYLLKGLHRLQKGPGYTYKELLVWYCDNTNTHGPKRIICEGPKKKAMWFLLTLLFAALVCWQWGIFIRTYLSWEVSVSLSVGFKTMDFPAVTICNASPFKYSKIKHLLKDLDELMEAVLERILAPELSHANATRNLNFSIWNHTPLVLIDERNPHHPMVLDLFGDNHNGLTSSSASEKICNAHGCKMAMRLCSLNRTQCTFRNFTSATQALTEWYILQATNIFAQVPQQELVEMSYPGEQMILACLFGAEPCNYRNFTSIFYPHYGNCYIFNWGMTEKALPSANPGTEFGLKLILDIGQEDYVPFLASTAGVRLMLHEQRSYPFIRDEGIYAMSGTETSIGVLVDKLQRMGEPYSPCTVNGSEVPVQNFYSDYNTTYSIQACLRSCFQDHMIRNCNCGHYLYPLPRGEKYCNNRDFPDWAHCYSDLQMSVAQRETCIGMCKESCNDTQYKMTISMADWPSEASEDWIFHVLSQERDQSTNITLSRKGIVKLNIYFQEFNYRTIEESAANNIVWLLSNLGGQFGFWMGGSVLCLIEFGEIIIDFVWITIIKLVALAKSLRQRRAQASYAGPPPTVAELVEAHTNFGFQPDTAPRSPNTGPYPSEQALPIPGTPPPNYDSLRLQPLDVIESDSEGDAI
# T1 sequence (P51170 1-649 partner): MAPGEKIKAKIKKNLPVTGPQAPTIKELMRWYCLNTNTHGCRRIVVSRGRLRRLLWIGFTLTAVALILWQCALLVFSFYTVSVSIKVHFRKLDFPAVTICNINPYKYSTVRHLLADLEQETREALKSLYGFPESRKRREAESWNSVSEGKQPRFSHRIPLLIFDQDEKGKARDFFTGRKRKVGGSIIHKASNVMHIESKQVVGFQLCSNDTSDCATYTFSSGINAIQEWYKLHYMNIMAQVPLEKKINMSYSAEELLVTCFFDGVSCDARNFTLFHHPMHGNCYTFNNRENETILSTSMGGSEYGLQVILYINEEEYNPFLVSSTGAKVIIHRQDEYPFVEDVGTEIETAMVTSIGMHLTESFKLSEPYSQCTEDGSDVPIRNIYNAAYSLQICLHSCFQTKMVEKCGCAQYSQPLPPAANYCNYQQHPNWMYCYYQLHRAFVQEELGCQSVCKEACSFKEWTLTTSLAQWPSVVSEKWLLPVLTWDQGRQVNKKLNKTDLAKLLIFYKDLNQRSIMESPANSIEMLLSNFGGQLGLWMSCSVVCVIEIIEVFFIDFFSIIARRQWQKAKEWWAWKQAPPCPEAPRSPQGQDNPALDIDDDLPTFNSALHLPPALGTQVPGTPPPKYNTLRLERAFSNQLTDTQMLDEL
# Description: […] After control recordings, 240 nM of the peptide of amino acid sequence SEQ ID NO:1 was added to the bath solution. […] Whole cell currents were recorded at Eh=−100 mV. The concentration of the peptides of amino acid sequence SEQ ID NO:1 to SEQ ID NO:7 in the bath solution was 240 nM.
# [3] = storage 2-8° C., T = 0 to T = 24 M
# [4] = storage 25° C./60% rH, T = 0 to T = 6 M
structure (smiles),measurement,setting,value
C[C@@H]1NC(=O)CNC(=O)[C@H](CCC(=O)O)NC(=O)[C@@H]2CCCN2C(=O)[C@H]([C@@H](C)O)NC(=O)[C@H](CCC(=O)O)NC(=O)[C@H](CCCNC(=N)N)NC(=O)[C@H](CCC(N)=O)NC(=O)CNC(=O)[C@@H](N)CCCCNC(=O)CNC(=O)[C@H](Cc2ccc(O)cc2)NC(=O)[C@H](Cc2c[nH]c3ccccc23)NC(=O)[C@@H]2CCCN2C(=O)[C@H](CCCCN)NC(=O)[C@H](C)NC(=O)[C@H](CCC(=O)O)NC1=O [SEQ ID NO: 3],Amount/Contents of lyophilisate,"[1]; storage 2-8° C., T = 0",100%
same,Purity of lyophilisate (stability study),"[1]; storage 2-8° C., T = 0",98%
same,Appearence of lyophilisate,[1]; [3],white powder
same,Amount/Contents of lyophilisate,"[1]; storage 2-8° C., T = 24 M",99%
same,Purity of lyophilisate (stability study),"[1]; storage 2-8° C., T = 24 M",98%
same,Amount/Contents of lyophilisate,"[1]; storage 25° C./60% rH, T = 0",100%
same,Purity of lyophilisate (stability study),"[1]; storage 25° C./60% rH, T = 0",98%
same,Appearence of lyophilisate,[1]; [4],white powder
same,Amount/Contents of lyophilisate,"[1]; storage 25° C./60% rH, T = 6 M",99%
same,Purity of lyophilisate (stability study),"[1]; storage 25° C./60% rH, T = 6 M",97%
same,whole cell sodium current,[2],20.6 pA (n = 3)
C[C@@H]1NC(=O)CNC(=O)[C@H](CCC(=O)O)NC(=O)[C@@H]2CCCN2C(=O)[C@H]([C@@H](C)O)NC(=O)[C@H](CCC(=O)O)NC(=O)[C@H](CCCNC(=N)N)NC(=O)[C@H](CCC(N)=O)NC(=O)CNC(=O)[C@@H]2CCCN2C(=O)[C@H](CO)NC(=O)[C@@H](N)CCCCNC(=O)CC[C@@H](C(=O)O)NC(=O)[C@H](Cc2ccc(O)cc2)NC(=O)[C@H](Cc2c[nH]c3ccccc23)NC(=O)[C@@H]2CCCN2C(=O)[C@H](CCCCN)NC(=O)[C@H](C)NC(=O)[C@H](CCC(=O)O)NC1=O [SEQ ID NO: 2],Amount/Contents of lyophilisate,"[1]; storage 2-8° C., T = 0",100%
same,Purity of lyophilisate (stability study),"[1]; storage 2-8° C., T = 0",96%
same,Appearence of lyophilisate,[1]; [3],white powder
same,Amount/Contents of lyophilisate,"[1]; storage 2-8° C., T = 24 M",99%
same,Purity of lyophilisate (stability study),"[1]; storage 2-8° C., T = 24 M",96%
same,Amount/Contents of lyophilisate,"[1]; storage 25° C./60% rH, T = 0",100%
same,Purity of lyophilisate (stability study),"[1]; storage 25° C./60% rH, T = 0",96%
same,Appearence of lyophilisate,[1]; [4],white powder
same,Amount/Contents of lyophilisate,"[1]; storage 25° C./60% rH, T = 6 M",99%
same,Purity of lyophilisate (stability study),"[1]; storage 25° C./60% rH, T = 6 M",95%
same,whole cell sodium current,[2],21.3 pA (n = 3)
C[C@@H]1NC(=O)CNC(=O)[C@H](CCC(=O)O)NC(=O)[C@@H]2CCCN2C(=O)[C@H]([C@@H](C)O)NC(=O)[C@H](CCC(=O)O)NC(=O)[C@H](CCCNC(=N)N)NC(=O)[C@H](CCC(N)=O)NC(=O)CNC(=O)CCCNC(=O)C[C@@H](C(=O)O)NC(=O)[C@H](Cc2ccc(O)cc2)NC(=O)[C@H](Cc2c[nH]c3ccccc23)NC(=O)[C@@H]2CCCN2C(=O)[C@H](CCCCN)NC(=O)[C@H](C)NC(=O)[C@H](CCC(=O)O)NC1=O [SEQ ID NO: 5],Amount/Contents of lyophilisate,"[1]; storage 2-8° C., T = 0",100%
same,Purity of lyophilisate (stability study),"[1]; storage 2-8° C., T = 0",99%
same,Appearence of lyophilisate,[1]; [3],white powder
same,Amount/Contents of lyophilisate,"[1]; storage 2-8° C., T = 24 M",99%
same,Purity of lyophilisate (stability study),"[1]; storage 2-8° C., T = 24 M",99%
same,Amount/Contents of lyophilisate,"[1]; storage 25° C./60% rH, T = 0",100%
same,Purity of lyophilisate (stability study),"[1]; storage 25° C./60% rH, T = 0",99%
same,Appearence of lyophilisate,[1]; [4],white powder
same,Amount/Contents of lyophilisate,"[1]; storage 25° C./60% rH, T = 6 M",99%
same,Purity of lyophilisate (stability study),"[1]; storage 25° C./60% rH, T = 6 M",98%
same,whole cell sodium current,[2],22.4 pA (n = 3)
C[C@@H]1NC(=O)CNC(=O)[C@H](CCC(=O)O)NC(=O)[C@@H]2CCCN2C(=O)[C@H]([C@@H](C)O)NC(=O)[C@H](CCC(=O)O)NC(=O)[C@H](CCCNC(=N)N)NC(=O)[C@H](CCC(N)=O)NC(=O)CNC(=O)[C@@H](N)CCCNC(=O)CNC(=O)[C@H](Cc2ccc(O)cc2)NC(=O)[C@H](Cc2c[nH]c3ccccc23)NC(=O)[C@@H]2CCCN2C(=O)[C@H](CCCCN)NC(=O)[C@H](C)NC(=O)[C@H](CCC(=O)O)NC1=O [SEQ ID NO: 4],Amount/Contents of lyophilisate,"[1]; storage 2-8° C., T = 0",100%
same,Purity of lyophilisate (stability study),"[1]; storage 2-8° C., T = 0",97%
same,Appearence of lyophilisate,[1]; [3],white powder
same,Amount/Contents of lyophilisate,"[1]; storage 2-8° C., T = 24 M",99%
same,Purity of lyophilisate (stability study),"[1]; storage 2-8° C., T = 24 M",97%
same,Amount/Contents of lyophilisate,"[1]; storage 25° C./60% rH, T = 0",100%
same,Purity of lyophilisate (stability study),"[1]; storage 25° C./60% rH, T = 0",97%
same,Appearence of lyophilisate,[1]; [4],white powder
same,Amount/Contents of lyophilisate,"[1]; storage 25° C./60% rH, T = 6 M",99%
same,Purity of lyophilisate (stability study),"[1]; storage 25° C./60% rH, T = 6 M",96%
same,whole cell sodium current,[2],22.5 pA (n = 3)
C[C@@H]1NC(=O)CNC(=O)[C@H](CCC(=O)O)NC(=O)[C@@H]2CCCN2C(=O)[C@H]([C@@H](C)O)NC(=O)[C@H](CCC(=O)O)NC(=O)[C@H](CCCNC(=N)N)NC(=O)[C@H](CCC(N)=O)NC(=O)CNC(=O)CCNC(=O)CC[C@@H](C(=O)O)NC(=O)[C@H](Cc2ccc(O)cc2)NC(=O)[C@H](Cc2c[nH]c3ccccc23)NC(=O)[C@@H]2CCCN2C(=O)[C@H](CCCCN)NC(=O)[C@H](C)NC(=O)[C@H](CCC(=O)O)NC1=O [SEQ ID NO: 6],Amount/Contents of lyophilisate,"[1]; storage 2-8° C., T = 0",100%
same,Purity of lyophilisate (stability study),"[1]; storage 2-8° C., T = 0",99%
same,Appearence of lyophilisate,[1]; [3],white powder
same,Amount/Contents of lyophilisate,"[1]; storage 2-8° C., T = 24 M",99%
same,Purity of lyophilisate (stability study),"[1]; storage 2-8° C., T = 24 M",99%
same,Amount/Contents of lyophilisate,"[1]; storage 25° C./60% rH, T = 0",100%
same,Purity of lyophilisate (stability study),"[1]; storage 25° C./60% rH, T = 0",99%
same,Appearence of lyophilisate,[1]; [4],white powder
same,Amount/Contents of lyophilisate,"[1]; storage 25° C./60% rH, T = 6 M",99%
same,Purity of lyophilisate (stability study),"[1]; storage 25° C./60% rH, T = 6 M",98%
same,whole cell sodium current,[2],19.9 pA (n = 3)
